This note sets out measurements from US20150266857A1, “NOVEL 3-INDOL SUBSTITUTED DERIVATIVES, PHARMACEUTICAL COMPOSITIONS AND METHODS FOR USE” (iTeos Therapeutics, priority 2014, published 2015).

In test [1] the target is T1, murine mastocytoma P815 cells overexpressing hTDO2 (Homo sapiens, UniProt P48775).
T1 construct: expressed in transfected cells; host or cells: murine mastocytoma P815 cells
Description: Cellular assay for TDO2 activity, hTDO2-overexpressing P815 cells. The format is cell-based. Conditions: P815 cells overexpressing hTDO2, overnight incubation, kynurenine in supernatant. The procedure:
The assay (adapted from Pilotte L et al., Proc Natl Acad Sci USA, 2012, 109(7), 2497-502) was performed in 96-well flat bottom plates seeded with murine mastocytoma P815 cells overexpressing hTDO2 (prepared as described in Pilotte et al., PNAS, 2012, 109(7), 2497-2502), at a concentration of 5×10^4 cells/well in a final volume of 200 μL. To determine TDO or IDO activity, the cells were incubated overnight at 37° C. at 5% CO2 in IMDM (Invitrogen) supplemented with 2% FBS and 2% penicillin/streptomycin in the presence of the compounds of the present invention, at different concentrations. The cells may be obtained from the American Type Cuylture Collecion [ATCC® TIB-64™ or commercially, e.g., from Sigma-Aldrich or Life Technologies.]
The plates were then centrifuged 5 min at 1000 rpm, and 100 μL of the supernatant were collected in a conical plate, 30 uL of TCA 30% were added and a further centrifugated at 3000×g for 10 minutes. 100 μL of the supernatant were collected in a flat bottomed plate and 100 μL of 2% (w/v) 4-(dimethylamino)-benzaldehyde in acetic acid and incubated for 5 min at room temperature. Kynurenine concentrations were determined by measuring the absorbance at 480 nm. A standard curve was made with pure kynurenine. The TDO activity was measured as described above using ten serial concentrations of the compounds of the present invention. Data were fitted using the Prism™ software (GraphPad Software, Inc.) using standard parameters.

For test [2], the target named is T2, human glioblastoma A172 cells, naturally expressing hTDO2 (Homo sapiens, UniProt P48775).
T2 construct: human glioblastoma A172 cells, naturally expressing hTDO2; endogenous in cells; host or cells: human glioblastoma A172 cells (ATCC CRL-1620)
As to the kind of experiment: Cellular assay for TDO2 activity, A172 cells. As to conditions: overnight incubation, kynurenine in supernatant. The format is cell-based. An outline of the steps: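 A172 human glioblastoma cells naturally expressing TDO2, seeded at 1.25×10^4 cells/well, were incubated overnight at 37 °C in IMDM with 2% FBS and ten serial compound concentrations. Supernatant kynurenine, after TCA precipitation and Ehrlich's reagent, was read at 480 nm against a kynurenine standard curve; data curve-fitted.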

The target in test [3] is T3, human recombinant TDO2 enzyme (Homo sapiens, UniProt P48775).
T3 construct: made in house
Description: Assay for TDO2 enzymatic activity determination. The format is biochemical. As to conditions: human recombinant TDO2, L-Trp 1 mM, kynurenine absorbance at 480 nm. The procedure:
To measure the TDO2 activity, the procedure described in Dolusic et al. J. Med. Chem.; 2011, 54, […] was adapted: the reaction mixture contained (final concentrations) potassium phosphate buffer (50 mM, pH 7.5), ascorbic acid (0.25 M), methylene blue (0.125 μM), catalase (40 units/mL, from bovine liver, Sigma), and human recombinant TDO2 enzyme (prepared as described in Dolusic et al. J. Med. Chem.; 2011, 54, 5320-5334; 0.9 μg) without or with the compounds of the present invention at the indicated concentrations (total volume 112.5 μL). The reaction was initiated by the addition of 37.5 μL of L-Trp (final concentration 1 mM) at room temperature. The reaction was conducted at room temperature during one hour and stopped by the addition of 30 μL of 30% (w/v) trichloroacetic acid.
To convert N-formylkynurenine into kynurenine, the reaction mixture was incubated at 65° C. for 30 min. Then 150 μL of the reaction mixture was mixed with 120 μL of 2.5% (w/v) 4-(dimethylamino)-benzaldehyde in acetic acid and incubated for 5 min at room temperature. Kynurenine concentrations were determined by measuring the absorbance at 480 nm. A standard curve was made with pure kynurenine. The TDO activity was measured as described above using ten serial concentrations of the compounds of the present invention. Data were fitted using the Prism™ software (GraphPad Software, Inc.) using standard parameters.

The test system of test [4] is TDO2. Description: Pharmacodynamic assay for TDO2 in vivo activity: increase of blood Tryptophan levels in mice. Set-up: species or system mouse. Conditions: female BALB/c mice, 2 hours; for increase of circulating Tryptophan compared to vehicle-treated controls: p<0.0001. The procedure: The compounds of the present invention increase the amount of Tryptophan in mouse blood. Briefly, female BALB/c mice (7-8 weeks old) were treated with either a suspension of one of the compounds of the present invention in 0.5% hydroxypropyl methyl cellulose (HPMC) K4M (4000 mPa·s (cPs), Methocell™, Dow chemical)/0.25% Tween® 20 (Signma Aldrich) at different doses (30, 60 and 100 mg/kg), or with a vehicle control (0.5% HPMC K4M/0.25% Tween 20), by the oral route by gavage (dosing volume 5 mL/kg, 10 mice per group). After two hours, blood was harvested, plasma was prepared and the amount of Tryptophan present was determined by LC-MS-MS (HPLC column Unison UK-Phenyl, 75×4.6, 3 μm, flow rate 0.8 mL/min, 8 minutes gradient from 95% water+0.1% formic acid/5% Acetonitrile+0.1% formic acid to 5% water+0.1% formic acid/95% Acetonitrile+0.1% formic acid, retention time 2.4 min; API4000 MS-MS system from AB Sciex, ESI+ mode, parent ion 205.1, daughter ion 146.1).

T2 sequence (P48775 whole entry): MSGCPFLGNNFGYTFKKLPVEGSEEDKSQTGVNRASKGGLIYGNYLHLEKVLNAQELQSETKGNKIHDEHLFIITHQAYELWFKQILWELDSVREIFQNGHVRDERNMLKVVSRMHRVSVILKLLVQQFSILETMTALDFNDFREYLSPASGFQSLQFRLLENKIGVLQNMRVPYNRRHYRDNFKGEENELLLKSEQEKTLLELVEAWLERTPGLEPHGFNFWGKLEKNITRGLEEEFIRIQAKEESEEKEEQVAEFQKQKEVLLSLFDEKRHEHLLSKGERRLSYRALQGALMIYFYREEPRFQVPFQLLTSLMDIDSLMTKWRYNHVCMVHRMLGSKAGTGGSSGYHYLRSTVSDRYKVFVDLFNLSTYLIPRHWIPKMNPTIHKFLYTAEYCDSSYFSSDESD
T3 sequence (P48775 whole entry): as above
T1 sequence (P48775 whole entry): as above

For `CS(=O)(=O)NCc1nc2cc(-c3c[nH]c4cc(F)ccc34)ccc2o1` [Compound 70, N-((5-(6-fluoro-1H-indol-3-yl)benzo[d]oxazol-2-yl)methyl)methanesulfonamide], the IC50 in test [1] was found to be 251 nM; in test [2], 435 nM.
Take `O=c1[nH]c2ccc(-c3c[nH]c4cc(F)ccc34)cc2[nH]1` [Compound 65, 5-(6-fluoro-1H-indol-3-yl)-1H-benzo[d]imidazol-2(3H)-one]: the IC50 stood at 109 nM in test [1] and 335 nM in test [2].
Turning to `CS(=O)(=O)CCc1nc2cc(-c3c[nH]c4cc(F)ccc34)ccc2[nH]1` [Compound 38, 5-(6-fluoro-1H-indol-3-yl)-2-(2-(methylsulfonyl)ethyl)-1H-benzo[d]imidazole], the IC50 amounted to 505 nM in test [1] and 512 nM in test [2].
With `Fc1ccc2c(-c3ccc4nc(CCN5CCNCC5)oc4c3)c[nH]c2c1` [Compound 110, 6-(6-fluoro-1H-indol-3-yl)-2-(2-(piperazin-1-yl)ethyl)benzo[d]oxazole], the IC50 in test [3] is 1630 nM; in test [2], 239 nM. In addition, the “Tryptophan concentration in plasma (average ± standard error of the mean)” value in test [4] (30 mg/kg oral gavage) amounted to 125 ± 7 µM; in test [4] (60 mg/kg oral gavage), 130.3 µM; in test [4] (100 mg/kg oral gavage), 153.2 µM. In addition, the results for the “increase of circulating Tryptophan compared to vehicle-treated controls” value in test [4] (30 mg/kg oral gavage), in test [4] (60 mg/kg oral gavage) and in test [4] (100 mg/kg oral gavage) were 46%, 52% and 78%, respectively.
As for `Fc1ccc2c(-c3ccc4ocnc4c3)c[nH]c2c1` [Compound 47, 5-(6-fluoro-1H-indol-3-yl)benzo[d]oxazole], the figures for the concentration for half-maximal inhibition (IC50) in test [1] and in test [2] were 100 nM and 479 nM, respectively.
As for `Fc1ccc2c(-c3ccc4nn(CC5CCNCC5)cc4c3)c[nH]c2c1` [Compound 77, 5-(6-fluoro-1H-indol-3-yl)-2-(piperidin-4-ylmethyl)-2H-indazole], the figures for the IC50 in test [1] and in test [2] were 246 nM and 265 nM, respectively.
Turning to `CN1CCN(Cc2nc3cc(-c4c[nH]c5cc(F)ccc45)ccc3o2)CC1` [Compound 62, 5-(6-fluoro-1H-indol-3-yl)-2-((4-methylpiperazin-1-yl)methyl)benzo[d]oxazole], the IC50 in test [1] came out at 210 nM; in test [2], 335 nM.
As for `CS(=O)(=O)NCc1nc2ccc(-c3c[nH]c4cc(F)ccc34)cc2o1` [Compound 74, N-((6-(6-fluoro-1H-indol-3-yl)benzo[d]oxazol-2-yl)methyl)methanesulfonamide], the results for the IC50 in test [1] and in test [2] were 72 nM and 152 nM, respectively.
Consider `Fc1ccc2c(-c3ccc4nc(CN5CCNCC5)oc4c3)c[nH]c2c1` [Compound 78, 6-(6-fluoro-1H-indol-3-yl)-2-(piperazin-1-ylmethyl)benzo[d]oxazole], for which the IC50 in test [1] worked out at 82 nM; in test [2] it was 149 nM.
For `CC(=O)NCc1nc2ccc(-c3c[nH]c4cc(F)ccc34)cc2o1` [Compound 75, N-((6-(6-fluoro-1H-indol-3-yl)benzo[d]oxazol-2-yl)methyl)acetamide] the same measures were 92 nM and 143 nM.
Consider `CN1CCN(Cc2nc3ccc(-c4c[nH]c5cc(F)ccc45)cc3o2)CC1` [Compound 68, 6-(6-fluoro-1H-indol-3-yl)-2-((4-methylpiperazin-1-yl)methyl)benzo[d]oxazole], for which the IC50 in test [1] was found to be 78 nM; in test [2], 218 nM.
For `Fc1ccc2c(-c3ccc4cn[nH]c4c3)c[nH]c2c1` [Compound 1, 6-(6-fluoro-1H-indol-3-yl)-1H-indazole], the figures for the IC50 in test [3], in test [1] and in test [2] were 586 nM, 154 nM and 178 nM, respectively.
On to `Cc1nc2cc(-c3c[nH]c4cc(F)ccc34)ccc2[nH]1` [Compound 26, 5-(6-fluoro-1H-indol-3-yl)-2-methyl-1H-benzo[d]imidazole], for which the IC50 in test [3] is 388 nM; in test [1] it was 150 nM.
With `NC(=O)Cn1c(=O)oc2cc(-c3c[nH]c4cc(F)ccc34)ccc21` [Compound 64, 2-(6-(6-fluoro-1H-indol-3-yl)-2-oxobenzo[d]oxazol-3(2H)-yl)acetamide], the IC50 was 176 nM in test [1] and 501 nM in test [2].
Turning to `Fc1ccc2c(-c3ccc4nc(CN5CCOCC5)oc4c3)c[nH]c2c1` [Compound 66, 6-(6-fluoro-1H-indol-3-yl)-2-(morpholinomethyl)benzo[d]oxazole], the IC50 is 203 nM in test [1] and 284 nM in test [2].
The compound `CNCc1nc2cc(-c3c[nH]c4cc(F)ccc34)ccc2[nH]1` [Compound 44, 1-(5-(6-fluoro-1H-indol-3-yl)-1H-benzo[d]imidazol-2-yl)-N-methylmethanamine] yielded an IC50 in test [1] of 345 nM.
